Experimental data published in patent US9465288B2, “Sulfonium salt compound, method for producing the same, and photoacid generator” (DSP GOKYO FOOD & CHEMICAL CO., LTD., priority 2012, dated 2016).

Tests used:
[1] = Solubility: amount of PGMEA necessary for dissolving 100 mg of test compound; format: physicochemical; conditions: for PGMEA (amount necessary for dissolving the test compound): 100 mg test compound, 20±5° C., 30 minutes with 30-second strong shaking every 5 minutes, 300 μL or less desirable
Method: The thus obtained sulfonium salt compounds were used as test compounds. PGMEA was added to 100 mg of each test compound, and the amount of PGMEA necessary for dissolving the test compound therein after the elapse of 30 minutes by repeating 30-second strong shaking at 20±5° C. every 5 minutes was measured. Here, “dissolving” means to reach the state where no insoluble matter can be observed by visual inspection, specifically, means that the resultant solution is clear, or a mixture in an arbitrary ratio becomes transparent. […] In Table 1 below, sulfonium salt compounds with an amount of PGMEA of 300 μL or less were evaluated as having desirable properties.

[2] = Ultraviolet-visible absorption spectrum, molecular extinction coefficient at 365 nm; format: physicochemical; conditions: 1×10^−4 mol/L acetonitrile solution; reference range 50 to 2000
Method: A 1×10^−4 mol/L acetonitrile solution of each test compound was prepared, and the molecular extinction coefficient at 365 nm in the ultraviolet-visible absorption spectrum was measured using an ultraviolet-visible spectrophotometer (UV-2400PC, manufactured by SHIMADZU CORPORATION). […] Considering that light would be transmitted to a deep portion of a thick film, the reference range of the molecular extinction coefficient at 365 nm (i-line) was set to 50 to 2000. The sulfonium compounds falling within this range were evaluated as having desirable properties.

| SMILES | PGMEA (amount necessary for dissolving the test compound) [1] [µL] | Molecular extinction coefficient (365 nm) [2] | Solubility in PGMEA (in words) ([1]; PGMEA) |
| --- | --- | --- | --- |
| CCCCOc1ccc2c(OCCCC)ccc([S+](CCCC)CCCC)c2c1.O=S(=O)([N-]S(=O)(=O)C(F)(F)C(F)(F)C(F)(F)C(F)(F)F)C(F)(F)C(F)(F)C(F)(F)C(F)(F)F [Ex. 3, 1-(4,7-di-n-butoxynaphthyl)di-n-butylsulfonium di(1,1,2,2,3,3,4,4,4-nonafluorobutanesulfone)imide] | 100 | 810 | – |
| CCCCOc1ccc2c(OCCCC)ccc([S+](CCCC)CCCC)c2c1.O=S(=O)([N-]S(=O)(=O)C(F)(F)F)C(F)(F)F [Ex. 10, 1-(4,7-di-n-butoxynaphthyl)di-n-butylsulfonium di(1,1,1-trifluoromethanesulfone)imide] | 100 | 940 | – |
| CCCCOc1ccc2ccc(OCCCC)c([S+](C(C)C)C(C)C)c2c1.O=S(=O)([N-]S(=O)(=O)C(F)(F)F)C(F)(F)F [Ex. 12, 1-(2,7-di-n-butoxynaphthyl)diisopropyl sulfonium di(1,1,1-trifluoromethanesulfone)imide] | 100 | 880 | – |
| CCCCOc1ccc([S+](CCCC)CCCC)c2c(OCCCC)cccc12.O=S(=O)([N-]S(=O)(=O)C(F)(F)F)C(F)(F)F [Ex. 7, 1-(4,8-di-n-butoxynaphthyl)di-n-butylsulfonium di(1,1,1-trifluoromethanesulfone)imide] | 100 | 570 | – |
| O=S(=O)([N-]S(=O)(=O)C(F)(F)C(F)(F)C(F)(F)C(F)(F)F)C(F)(F)C(F)(F)C(F)(F)C(F)(F)F.c1ccc([S+](c2ccccc2)c2ccccc2)cc1 [C. Ex. 4, triphenylsulfonium di(1,1,2,2,3,3,4,4,4-nonafluorobutanesulfone)imide, reference compound] | 100 | 0 | – |
| CCCCCCCCOc1ccc2ccc(OCCCCCCCC)c([S+](C)C)c2c1.O=S(=O)([N-]S(=O)(=O)C(F)(F)F)C(F)(F)F [Ex. 11, 1-(2,7-di-n-octoxynaphthyl)dimethylsulfonium di(1,1,1-trifluoromethanesulfone)imide] | 100 | 440 | – |
| CCCCOc1ccc2ccc(OCCCC)c([S+](CCCC)CCCC)c2c1.O=S(=O)([O-])C(F)(F)C(F)(F)C(F)(F)C(F)(F)F [Ex. 6, 1-(2,7-di-n-butoxynaphthyl)di-n-butylsulfonium 1,1,2,2,3,3,4,4,4-nonafluorobutanesulfonate] | 100 | 690 | – |
| CCCCOc1cc(OCCCC)c2ccccc2c1[S+](CCCC)CCCC.O=S(=O)([N-]S(=O)(=O)C(F)(F)C(F)(F)C(F)(F)C(F)(F)F)C(F)(F)C(F)(F)C(F)(F)C(F)(F)F [Ex. 5, 1-(2,4-di-n-butoxynaphthyl)di-n-butylsulfonium di(1,1,2,2,3,3,4,4,4-nonafluorobutanesulfone)imide] | 100 | 100 | – |
| CCCCOc1ccc2ccc(OCCCC)c([S+](CCCC)CCCC)c2c1.O=S(=O)([N-]S(=O)(=O)C(F)(F)C(F)(F)C(F)(F)C(F)(F)F)C(F)(F)C(F)(F)C(F)(F)C(F)(F)F [Ex. 1, 1-(2,7-di-n-butoxynaphthyl)di-n-butylsulfonium di(1,1,2,2,3,3,4,4,4-nonafluorobutanesulfone)imide] | 100 | 580 | – |
| CCCCOc1ccc2ccc(OCCCC)c([S+](CCCC)CCCC)c2c1.F[P-](F)(F)(F)(F)F [C. Ex. 3, 1-(2,7-di-n-butoxynaphthyl)di-n-butylsulfonium hexafluorophosphate, reference compound] | 1900 | 490 | exceptionally low solubility in PGMEA |
| CCCCOc1ccc2ccc(OCCCC)c([S+](c3ccccc3)c3ccccc3)c2c1.O=S(=O)([N-]S(=O)(=O)C(F)(F)C(F)(F)C(F)(F)C(F)(F)F)C(F)(F)C(F)(F)C(F)(F)C(F)(F)F [C. Ex. 5, 1-(2,7-di-n-butoxynaphthyl)diphenylsulfonium di(1,1,2,2,3,3,4,4,4-nonafluorobutanesulfone)imide, reference compound] | 100 | 2930 | – |
| CCCCOc1ccc2ccc(OCCCC)c([S+](C(C)C)C(C)C)c2c1.O=S(=O)([N-]S(=O)(=O)C(F)(F)C(F)(F)C(F)(F)C(F)(F)F)C(F)(F)C(F)(F)C(F)(F)C(F)(F)F [Ex. 13, 1-(2,7-di-n-butoxynaphthyl)diisopropyl sulfonium di(1,1,2,2,3,3,4,4,4-nonafluorobutanesulfone)imide] | 100 | 1030 | – |
| CCCCOc1ccc2ccc(OCCCC)c([S+](CCCC)CCCC)c2c1.O=S(=O)([N-]S(=O)(=O)C(F)(F)F)C(F)(F)F [Ex. 9, 1-(2,7-di-n-butoxynaphthyl)di-n-butylsulfonium di(1,1,1-trifluoromethanesulfone)imide] | 200 | 560 | – |
| CCCCOc1ccc([S+](CCCC)CCCC)c2c(OCCCC)cccc12.O=S(=O)([N-]S(=O)(=O)C(F)(F)C(F)(F)C(F)(F)C(F)(F)F)C(F)(F)C(F)(F)C(F)(F)C(F)(F)F [Ex. 8, 1-(4,8-di-n-butoxynaphthyl)di-n-butylsulfonium di(1,1,2,2,3,3,4,4,4-nonafluorobutanesulfone)imide] | 100 | 620 | – |
| COc1ccc2ccc(OC)c([S+](c3ccccc3)c3ccccc3)c2c1.O=S1(=O)[N-]S(=O)(=O)C(F)(F)C(F)(F)C1(F)F [C. Ex. 2, 1-(2,7-dimethoxynaphthyl)diphenylsulfonium 1,1,2,2,3,3-hexafluorotrimethylene sulfone imide, reference compound] | 1400 | 2010 | – |
| CCCCOc1ccc2ccc(OCCCC)c([S+](CCCC)CCCC)c2c1.O=S1(=O)[N-]S(=O)(=O)C(F)(F)C(F)(F)C1(F)F [Ex. 4, 1-(2,7-di-n-butoxynaphthyl)di-n-butylsulfonium 1,1,2,2,3,3-hexafluorotrimethylene sulfone imide] | 200 | 700 | – |
| CCCCOc1ccc2ccc(OCCCC)c([S+](C)C)c2c1.O=S(=O)([N-]S(=O)(=O)C(F)(F)C(F)(F)C(F)(F)C(F)(F)F)C(F)(F)C(F)(F)C(F)(F)C(F)(F)F [Ex. 2, 1-(2,7-di-n-butoxynaphthyl)dimethylsulfonium di(1,1,2,2,3,3,4,4,4-nonafluorobutanesulfone)imide] | 100 | 480 | – |
| O=S1(=O)[N-]S(=O)(=O)C(F)(F)C(F)(F)C1(F)F.c1ccc([S+](c2ccccc2)c2ccccc2)cc1 [C. Ex. 1, triphenylsulfonium 1,1,2,2,3,3-hexafluorotrimethylene imide, reference compound] | 300 | 0 | – |
